Data set [1] in a line: method code SF-GLC, from DOI: 10.1016/s0021-9673(99)01009-2, PMID: 10669289.

In the case of `CC(=O)OC/C=C(\C)CCC=C(C)C`, the logP was found to be 4.04.
The same measure, in the same setting: as for `CC12CC[C@@H](C1)C(C)(C)C2=O` (stereo in doubt), the figure is 3.17; as for `CC12CCC(CC1)C(C)(C)O2`, 2.84.
The same measure, in the same setting: with `C=C(C)[C@H]1CC[C@H](C)[C@@H](O)C1` the figure was 3.21.
Turning to `C=C(C)C1CC=C(C)C(O)C1` (configuration not stated), the logP in data set [1] was determined as 2.85.
Regarding `CC1=CCC2C[C@H]1C2(C)C`, in data set [1], the logP came to 4.44.
`CC(=O)C=CC1=C(C)CCCC1(C)C` yielded a logP of 3.84.
On the same count and under the same terms, with `CC(C)[C@@H]1CC[C@@H](C)CC1=O` the figure was 3.05; with `CC1=CC=C(C(C)C)CC1`, 4.25.
As for `CC(=O)OC(C)(C)C1C=CC(C)CC1` (configuration not stated), the logP in data set [1] is 3.96.
As for `CC1=CC2C(CC1)C2(C)C` (configuration not stated), the logP is 4.44.
On the same count and under the same terms, with `CC(C)=CCC[C@@H](C)CC=O` the figure was 3.83; with `C=CCc1ccc(OC)c(OC)c1`, 3.45.
The same measure, in the same setting: with `C=C(C)C1CCC2(C)OC2C1` (configuration not stated) the figure was 3.2.
`CC1=CC(=O)C(C(C)C)CC1` (configuration not stated): the logP was 2.85.
In data set [1], `CC1=CCC(O)(C(C)C)CC1` (configuration not stated) gave a logP of 2.8.
Turning to `CC(C)=CCC/C(C)=C/CO`, the lipophilicity (logP) was determined as 3.56.
On the same count and under the same terms, as for `C=CC(C)(CCC=C(C)C)OC(C)=O` (configuration not stated), the figure is 3.93.
Take `C/C=C/c1ccc(O)c(OC)c1`: the logP worked out at 3.04.
The same measure, in the same setting: with `C=CC1(C)CCC(C(C)(C)O)O1` (configuration not stated) the figure was 2.43.
`C=C(C)[C@H]1CC=C(C)C(=O)C1` came in with a logP in data set [1] of 2.71.
Regarding `CC(C)C12CCC(C)(CC1)O2`, the logP amounted to 2.97.
On the same count and under the same terms, with `CC12CCC(CC1=O)C2(C)C` (configuration not stated) the figure was 2.74; with `CC(C)=C1CC[C@@H](C)CC1=O`, 3.08; with `CC(=O)OC1C[C@H](C)CCC1C(C)C` (some centres not stated), 4.
For `CC1=CCC2C(C1)C2(C)C` (configuration not stated), the logP amounted to 4.38.
For the compound `CC1(C)C2CCC(CN)C1C2` (configuration not stated), the logP was 2.05.
On the same count and under the same terms, with `CC1(C)[C@@H]2CC=C(C=O)[C@H]1C2` the figure was 2.98; with `CC1=CCC(=C(C)C)CC1`, 4.24.
Consider `CC1=CCC(C(C)(C)O)CC1O` (configuration not stated), for which the log partition coefficient (logP) in data set [1] came out at 1.11.
`Cc1ccc(C(C)C)cc1O`: the logP stood at 3.49.
On the same count and under the same terms, as for `C=C(C)[C@@H]1CC=C(CO)CC1`, the figure is 3.17; as for `C=C(C)[C@@H]1CC=C(C=O)CC1`, 3.13.
Still for that read-out and setting: as for `CC1=C[C@H](O)[C@H]2C[C@@H]1C2(C)C`, the figure is 3.16; as for `CC1=CCC2[C@H](C1=O)C2(C)C` (some centres not stated), 2.42.
Still for that read-out and setting: as for `CC1(C)[C@H]2CC=C(CO)[C@@H]1C2`, the figure is 3.22; as for `CC1=CC(=O)[C@H]2CC1C2(C)C`, 2.23.
In data set [1], `CC1=CCC(C(C)(C)O)CC1` (configuration not stated) gave a logP of 3.28.
With `CC1(C)C2CCC1(C)C(O)C2` (configuration not stated), the logP worked out at 3.01.
Take `C=C(C)C1CCC(C)C(=O)C1` (configuration not stated): the logP in data set [1] came to 2.85.
As to `CC1(C)[C@H]2CC[C@@H](CO)[C@@H]1C2`, the lipophilicity (logP) is 3.41.
On the same count and under the same terms, with `CC(=O)/C=C/[C@H]1C(C)=CCCC1(C)C` the figure was 3.85.

The record behind these values is the SangsterLogP compilation.
